According to ChEMBL document CHEMBL1201862, “PubChem BioAssay data set” (2004):
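Growth conditions: 96-well plates. Treatment: test compound, 48 hours, 5 concentrations. Analysis: linear interpolation between bracketing concentrations; unreached endpoints set to highest concentration. GI50 marks 50% less growth.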 The source made the active and inactive calls. Cut-off read from the data, not from the text of the source: active = GI50 up to about 1.1 µM and inactive = higher.

Assays:
Assay in all cases: inhibition of tumour cell growth, NCI panel, 48 h
A498 = tested on: A498
HCT-116 = tested on: HCT-116
HOP-92 = tested on: HOP-92
ACHN = tested on: ACHN
OVCAR-5 = tested on: OVCAR-5
LOX IMVI = tested on: LOX IMVI
SK-MEL-2 = tested on: SK-MEL-2
HL-60 = tested on: HL-60
U-251 = tested on: U-251
SF-539 = tested on: SF-539
Malme-3M = tested on: Malme-3M
IGROV-1 = tested on: IGROV-1
OVCAR-3 = tested on: OVCAR-3
NCI-H23 = tested on: NCI-H23
UACC-257 = tested on: UACC-257
SK-MEL-5 = tested on: SK-MEL-5
TK-10 = tested on: TK-10
SNB-75 = tested on: SNB-75
MDA-N = tested on: MDA-N
MCF7 = tested on: MCF7

Measured: GI50

CCOc1ccc(C2=NN(CC)C(=O)C(C3C(=O)N(c4ccccc4)N=C3C)C2)cc1 (configuration not stated)
inactive: A498 > 100 µM | HCT-116 > 100 µM | HOP-92 > 100 µM | ACHN > 100 µM | OVCAR-5 > 100 µM | LOX IMVI > 100 µM | SK-MEL-2 > 100 µM | HL-60 > 100 µM | U-251 > 100 µM | SF-539 > 100 µM | Malme-3M > 100 µM | IGROV-1 > 100 µM | OVCAR-3 > 100 µM | NCI-H23 > 100 µM | UACC-257 > 100 µM | SK-MEL-5 > 100 µM | TK-10 > 100 µM

CCOc1ccc2[nH]c3c(C)c4ccncc4c(C)c3c2c1
inactive: A498 1.8 µM | HOP-92 1.45 µM | OVCAR-5 1.58 µM | LOX IMVI 1.2 µM | SK-MEL-2 1.19 µM | HL-60 1.2 µM | SF-539 1.58 µM | Malme-3M 1.41 µM | IGROV-1 1.16 µM | OVCAR-3 4.27 µM | SNB-75 1.71 µM | NCI-H23 1.45 µM | UACC-257 1.75 µM | SK-MEL-5 1.51 µM | TK-10 2.12 µM
active: HCT-116 0.486 µM | ACHN 1.07 µM | U-251 1 µM

CC(C)(C)NC(=O)NC12CC3CC(CC(F)(C3)C1)C2
inactive: A498 > 100 µM | HCT-116 > 100 µM | HOP-92 > 100 µM | ACHN > 100 µM | OVCAR-5 > 100 µM | LOX IMVI > 100 µM | SK-MEL-2 > 100 µM | HL-60 > 100 µM | U-251 > 100 µM | SF-539 > 100 µM | Malme-3M > 100 µM | IGROV-1 > 100 µM | OVCAR-3 > 100 µM | SNB-75 52.7 µM | NCI-H23 > 100 µM | UACC-257 > 100 µM | TK-10 > 100 µM

C[Si](C)(C)/C=C\CCO
inactive: A498 > 100 µM | HCT-116 > 100 µM | HOP-92 > 100 µM | ACHN > 100 µM | OVCAR-5 > 100 µM | LOX IMVI > 100 µM | SK-MEL-2 > 100 µM | HL-60 > 100 µM | U-251 > 100 µM | SF-539 > 100 µM | Malme-3M > 100 µM | IGROV-1 > 100 µM | OVCAR-3 > 100 µM | SNB-75 > 100 µM | NCI-H23 > 100 µM | UACC-257 > 100 µM | SK-MEL-5 > 100 µM | TK-10 > 100 µM

CCc1nc2ccc(/N=N/N(C)C)cc2[nH]1
inactive: HCT-116 > 100 µM | ACHN > 100 µM | OVCAR-5 > 100 µM | SK-MEL-2 > 100 µM | U-251 > 100 µM | MDA-N > 100 µM | Malme-3M > 100 µM | IGROV-1 > 100 µM | OVCAR-3 > 100 µM | SNB-75 > 100 µM | NCI-H23 > 100 µM | UACC-257 > 100 µM | SK-MEL-5 > 100 µM | TK-10 > 100 µM

CC(=O)N(O)c1ccc(-c2nc3ccccc3s2)cc1
inactive: A498 35.6 µM | HCT-116 68.5 µM | HOP-92 64.4 µM | ACHN 47.5 µM | OVCAR-5 > 100 µM | LOX IMVI 63.4 µM | SK-MEL-2 66.7 µM | U-251 87.9 µM | MDA-N 77.6 µM | Malme-3M 31.3 µM | IGROV-1 32.9 µM | OVCAR-3 52.2 µM | SNB-75 33 µM | NCI-H23 > 100 µM | UACC-257 > 100 µM | SK-MEL-5 39.2 µM | TK-10 80.7 µM

Cc1nccc2c1cnc1ccnn12
inactive: A498 > 100 µM | HCT-116 > 100 µM | HOP-92 > 100 µM | ACHN > 100 µM | OVCAR-5 > 100 µM | LOX IMVI > 100 µM | SK-MEL-2 > 100 µM | HL-60 > 100 µM | U-251 > 100 µM | SF-539 > 100 µM | Malme-3M > 100 µM | IGROV-1 > 100 µM | OVCAR-3 > 100 µM | SNB-75 > 100 µM | NCI-H23 > 100 µM | UACC-257 > 100 µM | SK-MEL-5 > 100 µM | TK-10 > 100 µM

COc1ccc(N2C(=O)CSC2c2cc3cc(Br)ccc3nc2Cl)cc1 (configuration not stated)
inactive: A498 > 50 µM | HCT-116 > 50 µM | HOP-92 > 50 µM | ACHN 19 µM | OVCAR-5 > 50 µM | LOX IMVI 37.6 µM | SK-MEL-2 35.6 µM | HL-60 > 50 µM | MCF7 31.7 µM | SF-539 > 50 µM | Malme-3M > 50 µM | IGROV-1 > 50 µM | OVCAR-3 > 50 µM | SNB-75 > 50 µM | NCI-H23 > 50 µM | UACC-257 17.9 µM | SK-MEL-5 37.4 µM | TK-10 > 50 µM
